Test results published in patent US11028051B2, “Tetrahydroquinoline-based bromodomain inhibitors” (St. Jude Children's Research Hospital, priority 2016, dated 2021).

Assays:
Experiment in all cases: competitive TR-FRET assay, BET-BD with acetylated peptide ligand
Assay type in all cases: binding
BRD2-BD1 = BRD2-BD1 (Homo sapiens (Human), UniProt P25440); conditions: BRD2-BD1; Table 11 additional modifications; read-out: 2.1 EC50
Procedure: (§1) Inhibitor potency was determined using a competitive TR-FRET assay as detailed herein, measuring interaction of the respective BET-BD with an acetylated peptide ligand (Table 2).

BRD2-BD2 = BRD2-BD2 (Homo sapiens (Human), UniProt P25440); conditions: for EC50: BRD2-BD2, Table 11 additional modifications, read-out: 2.2 EC50; for 2.1/2.2: ratio of BRD2-BD1 EC50 to BRD2-BD2 EC50 (selectivity)
BRD2-BD2, sequence (P25440 344-453): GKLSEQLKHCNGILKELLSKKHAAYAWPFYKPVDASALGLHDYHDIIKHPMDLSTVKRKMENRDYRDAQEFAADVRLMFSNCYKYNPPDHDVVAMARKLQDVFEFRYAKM
Procedure: as §1

BRD3-BD1 = BRD3-BD1 (Homo sapiens (Human), UniProt Q15059); conditions: BRD3-BD1; Table 11 additional modifications; read-out: 3.1 EC50
BRD3-BD1, sequence (Q15059 34-140): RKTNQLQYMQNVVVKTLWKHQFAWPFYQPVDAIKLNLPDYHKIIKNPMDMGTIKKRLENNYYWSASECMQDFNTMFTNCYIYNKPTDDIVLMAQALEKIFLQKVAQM
Procedure: as §1

BRD4-BD1 = BRD4-BD1 (Homo sapiens (Human), UniProt O60885); conditions: BRD4-BD1; Table 11 additional modifications; read-out: 4.1 EC50
Procedure: as §1

BRDT = BRDT (Homo sapiens, UniProt Q58F21); conditions: BRDT; Table 11 additional modifications; read-out: BRDT EC50
Procedure: as §1

BRD2-BD1, sequence (P25440 74-180): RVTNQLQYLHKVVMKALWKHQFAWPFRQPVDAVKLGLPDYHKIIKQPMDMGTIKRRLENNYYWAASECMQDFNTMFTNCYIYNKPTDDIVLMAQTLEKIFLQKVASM

SMILES | EC50 (BRD2-BD1) [nM] | EC50 (BRD2-BD2) [nM] | 2.1/2.2 (BRD2-BD2) | EC50 (BRD3-BD1) [nM] | EC50 (BRD4-BD1) [nM] | EC50 (BRDT) [nM]
CC(=O)N1c2ccc(-c3cccc(NCc4ccc(C)cc4)c3)cc2[C@H](NC(=O)OC(C)C)C[C@@H]1C [compound 103] | 3700 | 2800 | 13 | 890 | 3500 | 4800
CC(=O)Nc1cccc(-c2ccc3c(c2)[C@H](Nc2ccc(CN)cc2)C[C@H](C)N3C(C)=O)c1 [compound 26] | 470 | 23 | 20 | 78 | 1100 | > 36000
CC(=O)Nc1cccc(-c2ccc3c(c2)[C@H](Nc2ccc(C(=O)CO)cc2)C[C@H](C)N3C(C)=O)c1 [compound 30] | 2900 | 20 | 145 | 9800 | > 70000 | 4800
COC(=O)c1ccc(N[C@@H]2C[C@H](C)N(C(C)=O)c3ccc(-c4cccc(NC(C)=O)c4)cc32)c(C)c1 [compound 160] | 2200 | – | 44 | 3000 | > 30000 | 3300
CC(=O)Nc1cccc(-c2ccc3c(c2)[C@H](Nc2ccc(-c4nnco4)cc2)C[C@H](C)N3C(C)=O)c1 [compound 34] | 410 | 20 | 21 | 510 | 5100 | 890
CC(=O)N1c2ccc(-c3cccc(NC(=O)Cc4ccccc4)c3)cc2[C@H](NC(=O)OC(C)C)C[C@@H]1C [compound 110] | 1300 | 120 | 14 | 230 | 1100 | 1600
CC(=O)N1c2ccc(-c3cccc(NC(=O)c4ccc(C)cc4)c3)cc2[C@H](NC(=O)OC(C)C)C[C@@H]1C [compound 95] | 3100 | 420 | 1.2 | 380 | 2000 | 510
CC(=O)N1c2ccc(-c3ccn(C)n3)cc2[C@H](Nc2ccccc2OC(F)(F)F)C[C@@H]1C [compound 172] | 8200 | 640 | 6.3 | 12000 | 17000 | 12000
COc1cc(F)ccc1N[C@@H]1C[C@H](C)N(C(C)=O)c2ccc(-c3ccn(C)n3)cc21 [compound 173] | 1400 | 170 | 8.2 | 1500 | 3800 | 2000
CC(=O)N1c2ccc(-c3cccc(NC(=O)C4CCCCC4)c3)cc2[C@H](NC(=O)OC(C)C)C[C@@H]1C [compound 99] | 940 | 120 | 12 | 250 | 1000 | 730
CC(=O)N1c2ccc(-c3cccc(NC(=O)C(C)C)c3)cc2[C@H](NC(=O)OC(C)C)C[C@@H]1C [compound 98] | 1500 | 120 | 15 | 240 | 900 | 1200
CC(=O)Nc1cccc(-c2ccc3c(c2)[C@H](Nc2ccc(-c4nnnn4C)cc2)C[C@H](C)N3C(C)=O)c1 [compound 28] | > 52000 | 10 | – | > 52000 | > 52000 | > 52000
CC(=O)N1c2ccc(-c3cccc(NC(=O)C(C)(C)C)c3)cc2[C@H](NC(=O)OC(C)C)C[C@@H]1C [compound 113] | 2200 | 110 | 4.8 | 410 | 1400 | 7500
CC(=O)Nc1cccc(-c2ccc3c(c2)[C@H](Nc2ccc(C#N)cc2)C[C@H](C)N3C(C)=O)c1 [compound 29] | 460 | 8 | 58 | 260 | 1200 | 300
CC(=O)N1c2ccc(-c3cccc(NCCCc4ccccc4)c3)cc2[C@H](NC(=O)OC(C)C)C[C@@H]1C [compound 109] | 11000 | 280 | 5.6 | 670 | > 11000 | 11000
CCCCNc1cccc(-c2ccc3c(c2)[C@H](NC(=O)OC(C)C)C[C@H](C)N3C(C)=O)c1 [compound 114] | 790 | 50 | 9.1 | 120 | 470 | 52000
CC(=O)N1c2ccc(-c3cc[nH]n3)cc2[C@H](Nc2ccccc2OC(F)(F)F)C[C@@H]1C [compound 171] | > 53000 | 440 | 140 | 23000 | 31000 | > 53000
CCCCOc1cccc(-c2ccc3c(c2)[C@H](Nc2ccc(C(=O)OC)cc2)C[C@H](C)N3C(C)=O)c1 [compound 164] | 22000 | 220 | 100 | 30000 | 57000 | 32000

SMILES | EC50 (BRD2-BD1) [nM] | EC50 (BRD2-BD2) [nM] | 2.1/2.2 (BRD2-BD2) | EC50 (BRD3-BD1) [nM] | EC50 (BRD4-BD1) [nM] | EC50 (BRDT) [nM]
COc1cc(F)ccc1N[C@@H]1C[C@H](C)N(C(C)=O)c2ccc(-c3cccc(CNCC(F)(F)F)c3)cc21 [compound 169] | > 30000 | – | – | > 30000 | > 30000 | > 30000
CC(=O)N1c2ccc(-c3cccc(NCCC(C)C)c3)cc2[C@H](NC(=O)OC(C)C)C[C@@H]1C [compound 100] | 3800 | 40000 | 7.3 | 690 | 6000 | 40000
CC(=O)N1c2ccc(-c3cccc(NS(C)(=O)=O)c3)cc2[C@H](NC(=O)OC(C)C)C[C@@H]1C [compound 93] | 580 | 120 | 4.6 | 150 | 380 | 1200
CC(=O)Nc1cccc(-c2ccc3c(c2)[C@H](Nc2cccc4cccnc24)C[C@H](C)N3C(C)=O)c1 [compound 33] | > 4900 | 10000 | – | > 4900 | > 4900 | > 4900
CCC(=O)Nc1cccc(-c2ccc3c(c2)[C@H](NC(=O)OC(C)C)C[C@H](C)N3C(C)=O)c1 [compound 115] | 370 | 40 | 7.2 | 90 | 160 | 330
CC(=O)N1c2ccc(-c3cccc(NCC4CCOC4)c3)cc2[C@H](NC(=O)OC(C)C)C[C@@H]1C (stereo partly shown) [compound 105] | 400 | 30 | 0.095 | 100 | 200 | 1100
CC(=O)N1c2ccc(-c3ccnn3C)cc2[C@H](NC(=O)OC(C)C)C[C@@H]1C [compound 97] | 100000 | 2500 | 4.8 | 7800 | 20000 | 40000
CC(=O)Nc1cccc(-c2ccc3c(c2)[C@H](Nc2ccc(-c4nnc(C)o4)cc2)C[C@H](C)N3C(C)=O)c1 [compound 35] | 80 | 12 | 6.7 | 130 | 2500 | 140
CC(=O)Nc1ccc(-c2ccc3c(c2)[C@H](Nc2ccc(Cl)cc2)C[C@H](C)N3C(C)=O)cc1 [compound 48] | 1900 | 360 | 5.3 | 1900 | – | 5300
C#CCCCC(=O)Nc1cccc(-c2ccc3c(c2)[C@H](Nc2ccc(C(=O)OC)cc2)C[C@H](C)N3C(C)=O)c1 [compound 138] | 4600 | 90 | 36 | 1800 | – | 8700
COc1cccc(-c2ccc3c(c2)[C@H](Nc2ccc(Cl)cc2)C[C@H](C)N3C(C)=O)c1 [compound 147] | 7200 | 1600 | 7.4 | 9400 | – | 17000
COC(=O)c1ccc(N[C@@H]2C[C@H](C)N(C(C)=O)c3ccc(-c4ccnn4C)cc32)cc1 [compound 144] | 3800 | 290 | 7.0 | 3100 | – | 15000
CCCCN(CCCC)c1cccc(-c2ccc3c(c2)[C@H](Nc2ccc(C(=O)OC)cc2)C[C@H](C)N3C(C)=O)c1 [compound 143] | 8000 | 1100 | 93 | 11000 | – | 34000
CC(=O)N1c2ccc(-c3cccc(NC4CCCC4)c3)cc2[C@H](Nc2ccccc2OC(F)(F)F)C[C@@H]1C [compound 154] | 20000 | 1800 | 4.6 | 27000 | – | > 84000
COC(=O)c1ccc(N[C@@H]2C[C@H](C)N(C(C)=O)c3ccc(-c4cccc(NCCC(C)C)c4)cc32)cc1 [compound 142] | 2500 | 230 | 52 | 2500 | – | 8300
CCCCCN(CCCCC)c1cccc(-c2ccc3c(c2)[C@H](Nc2ccccc2OC(F)(F)F)C[C@H](C)N3C(C)=O)c1 [compound 150] | 72000 | 22000 | 13 | > 72000 | – | > 72000
CC(=O)N(C)c1cccc(-c2ccc3c(c2)[C@H](Nc2ccc(Cl)cc2)C[C@H](C)N3C(C)=O)c1 [compound 149] | 1300 | 140 | 10 | 1000 | – | 3600
